{
  "source": "patent US12234248B2",
  "about": "“Co-crystal compounds comprising lithium ions and isonicotinamide” (UNIVERSITY OF LIMERICK, priority 2017, dated 2025)",
  "key": {"[1]": {"experiment": "Stability of crystalline material under warm humid conditions (40° C., 75% relative humidity), PXRD before and after", "type": "physicochemical", "settings": "for Stable?: stored at 40° C., 75% relative humidity, stable = retained crystal form for at least two weeks by PXRD; for PXRD pattern after storage compared with initial pattern: after 2 months at 75% relative humidity and 40° C.", "experimental": "The stability of these compounds under warm humid conditions was assessed as follows:\nThe crystalline material was stored at 40° C. in an atmosphere of 75% relative humidity.\nCompounds were classed as stable if they retained their crystal form for at least two weeks as verified by examination of PXRD patterns collected before and after exposure to humidity.\nIt can be seen that the pattern obtained after 2 months at 75% relative humidity and 40° C. (upper trace) in this case is different."}, "[2]": {"experiment": "Bioavailability in vivo in rats: lithium in plasma and brain by ICP-OES after oral administration", "experimental": "Male Sprague-Dawley rats, weighing 240-290 g, were treated through gastric intubation with formulations of lithium and compared with lithium carbonate as a reference. For each formulation a group of 12 rats was treated. 4 mEq/kg of lithium were orally administered, after suspension in 2 mL of corn seeds oil (“Olio Cuore”).\nFour intervals' post-administration time (2, 24, 48 and 72 hours) were considered and three rats for each of them, employing the protocol used by Zaworotko and coworkers (Smith et al., Mol. Pharmaceutics 2013, 10, 4728-4738). At each time interval blood samples were collected through intra-cardiac […], these were treated with 50 μL of sodium heparin and centrifuged for 10 min at 1600 rpm. Plasma samples of approximately […] each were thus obtained. The brain was explanted in toto with perfusion with phosphate buffered saline (PBS) in order to preserve it in a viable state. The plasma and brain samples were immediately frozen at a temperature of −80° C., after measuring the weight of the brains.\nIn order to determine the concentration of the lithium by means of the ICP-OES (Inductively Coupled Plasma Optical Emission Spectometry) analysis, plasma and brain samples were purified and mineralized, respectively to obtain solutions suitable for analysis.\nA 0.5 mL aliquot was taken from each sample, to which were added equal amounts of MilliQ water and concentrated nitric acid, in order to bring the lithium ion in solution in the form of LiNO3 and to obtain the precipitation of the proteins. At this point, each sample was sonicated for 10 min in an ultrasonic bath and diluted to a volume of 5.0 mL.\nAll samples were subjected to centrifugation for a period of 40 min, at a rotational speed of 6000 rpm, to obtain complete plasma proteins/solution separation. At the end supernatant liquid containing lithium was diluted to a final volume of 15 mL by adding MilliQ water. The obtained solutions were stored at a temperature of 4° C. until analysis.\nThe purpose of this phase was to obtain liquid samples, suitable to ICP-OES analysis, containing lithium in solution, starting from the solid organic tissue of the brain. The mineralization process allows the complete degradation of organic substances until the total transformation into simple inorganic substances.\nThe first operation performed was that the drying of the fabric, obtained through the use of a digester open PerkinElmer SPB 100-12: each sample of brain has been inserted in special containers Digitube™ 100 mL and maintained at a temperature of 80° C. for 120 min.\nThe second step involved the mineralization true and proper brain: each sample were added to 10 mL of concentrated nitric acid and 1.0 mL of hydrogen peroxide, then the system was brought to a temperature of 120° C. for 120 min. until the complete mineralization. With this procedure you get the desired biological degradation of organic compounds and the consequent passage of lithium in solution. The solutions thus obtained were collected, brought to a final volume of 20 mL with MilliQ water and preserved at a temperature of 4° C. until time of analysis.\nIn order to obtain the determination of lithium ion concentrations in the samples previously prepared, optical emission spectrometry inductively coupled plasma ICP-OES was used (PerkinElmer Optima 8000 spectrometer).\nThe analysis was conducted at the fixed wavelength of lithium (λ=670.784 nm) and the intensity of the radiation emitted by each sample was measured and compared standard solutions.\nPlasma and brain concentration data were processed using a non-compartmental approach using WinNonlin® software (Pharsight Corporation, USA) and Microsoft Excel XP (Microsoft Corporation, […])."}, "[3]": {"settings": "rat brain, 4 mEq/kg lithium oral, non-compartmental"}, "[4]": {"settings": "rat plasma, 4 mEq/kg lithium oral, non-compartmental"}},
  "note": "“And” between values parts separate entries of the source, which are not always exact repeats. Equal entries are not always repeated.",
  "data": [
    {"compound": "NC(=O)c1ccncc1.NC(=O)c1ccncc1.NC(=O)c1ccncc1.NC(=O)c1ccncc1.NC(=O)c1ccncc1.NC(=O)c1ccncc1.NC(=O)c1ccncc1.NC(=O)c1ccncc1.O=C([O-])c1ccccc1O.O=C([O-])c1ccccc1O.O=C([O-])c1ccccc1O.O=C([O-])c1ccccc1O.[Li+].[Li+].[Li+].[Li+]", "note": "[Compound 32, [Li2(salicylate)2(isonicotinamide)4]2]", "values": [
      {"measurement": "Stable?", "setting": "[1]", "value": "No"}
    ]},
    {"compound": "O=C([O-])CCC(=O)[O-].[Li+].[Li+]", "note": "[Compound 16, [Li2 (succinate)]n]", "values": [
      {"measurement": "Stable?", "setting": "[1]", "value": "Yes"}
    ]},
    {"compound": "COc1ccccc1C(=O)[O-].O=C(O)[C@@H]1CCCN1.[Li+]", "note": "[Compound 1, [Li(2-methoxybenzoate)(L-proline)]n]", "values": [
      {"measurement": "PXRD pattern after storage compared with initial pattern", "setting": "[1]", "value": "substantially identical"},
      {"measurement": "Stable?", "setting": "[1]", "value": "Yes"},
      {"measurement": "Cmax (brain)", "setting": "[2]; [3]", "value": 3.5067, "unit": "µg/g"},
      {"measurement": "Tmax (brain)", "setting": "[2]; [3]", "value": 24, "unit": "h"},
      {"measurement": "t½_Lambda_z (brain)", "setting": "[2]; rat brain, 4 mEq/kg lithium oral, terminal phase", "value": 18.9045, "unit": "h"},
      {"measurement": "AUClast (brain)", "setting": "[2]; rat brain, 4 mEq/kg lithium oral, time 0 to last quantifiable point", "value": 172.2533, "unit": "mg·h/g"},
      {"measurement": "Relative Brain BA (UL crystal forms, oral vs Li2CO3, oral)", "setting": "[2]; rat brain, relative to lithium carbonate", "value": 74.12, "unit": "%"},
      {"measurement": "Cmax (plasma)", "setting": "[2]; [4]", "value": 4120, "unit": "ng/mL"},
      {"measurement": "Tmax (plasma)", "setting": "[2]; [4]", "value": 24, "unit": "h"},
      {"measurement": "t½_Lambda_z (plasma)", "setting": "[2]; rat plasma, 4 mEq/kg lithium oral, terminal phase", "value": 12.9141, "unit": "h"},
      {"measurement": "Relative Plasma BA (UL crystal forms, oral vs Li2CO3 oral)", "setting": "[2]; rat plasma, relative to lithium carbonate", "value": 58.42, "unit": "%"},
      {"measurement": "BRAIN CONC., Time(h) 2.00", "setting": "[2]; rat, 4 mEq/kg lithium oral, 2 h, lithium in brain, individual rats (three per time)", "value": "0.96 µg/g and 0.71 µg/g and 0.68 µg/g"},
      {"measurement": "PLASMA CONC, Time(h) 2.00", "setting": "[2]; rat, 4 mEq/kg lithium oral, 2 h, lithium in plasma, individual rats (three per time)", "value": "3430 ng/mL and 1780 ng/mL and 2310 ng/mL"},
      {"measurement": "BRAIN CONC., Time(h) 24.00", "setting": "[2]; rat, 4 mEq/kg lithium oral, 24 h, lithium in brain, individual rats (three per time)", "value": "3.64 µg/g and 4.28 µg/g and 2.60 µg/g"},
      {"measurement": "PLASMA CONC, Time(h) 24.00", "setting": "[2]; rat, 4 mEq/kg lithium oral, 24 h, lithium in plasma, individual rats (three per time)", "value": "3850 ng/mL and 6010 ng/mL and 2500 ng/mL"},
      {"measurement": "BRAIN CONC., Time(h) 48.00", "setting": "[2]; rat, 4 mEq/kg lithium oral, 48 h, lithium in brain, individual rats (three per time)", "value": "2.81 µg/g and 4.50 µg/g and 2.06 µg/g"},
      {"measurement": "PLASMA CONC, Time(h) 48.00", "setting": "[2]; rat, 4 mEq/kg lithium oral, 48 h, lithium in plasma, individual rats (three per time)", "value": "970 ng/mL and 1780 ng/mL and 850 ng/mL"},
      {"measurement": "BRAIN CONC., Time(h) 72.00", "setting": "[2]; rat, 4 mEq/kg lithium oral, 72 h, lithium in brain, individual rats (three per time)", "value": "0.62 µg/g and 0.68 µg/g and 0.51 µg/g"},
      {"measurement": "PLASMA CONC, Time(h) 72.00", "setting": "[2]; rat, 4 mEq/kg lithium oral, 72 h, lithium in plasma, individual rats (three per time)", "value": "230 ng/mL and 400 ng/mL and 310 ng/mL"}
    ]},
    {"compound": "CC1=CC(=O)[N-]S(=O)(=O)O1.O.[Li+]", "note": "[Compound 23, [Li(acesulfame)(water)]n]", "values": [
      {"measurement": "Stable?", "setting": "[1]", "value": "No"}
    ]},
    {"compound": "[Li(camphorsulfonate)(water)2] [Compound 29]", "values": [
      {"measurement": "Stable?", "setting": "[1]", "value": "No"}
    ]},
    {"compound": "Li(adeninate)(water)3 [Compound 8]", "values": [
      {"measurement": "Stable?", "setting": "[1]", "value": "No"}
    ]},
    {"compound": "CC(O)C(=O)[O-].CC(O)C(=O)[O-].NC(N)=O.O.O.[Li+].[Li+]", "note": "(stereo not shown) [Compound 21, [(Li2(lactate)2(water)2)(urea)]n]", "values": [
      {"measurement": "Stable?", "setting": "[1]", "value": "No"}
    ]},
    {"compound": "[Li(pyridoxinate)(water)]n [Compound 10]", "values": [
      {"measurement": "Stable?", "setting": "[1]", "value": "No"}
    ]},
    {"compound": "NC(=O)c1ccncc1.NC(=O)c1ccncc1.O=C([O-])CCC(=O)[O-].[Li+].[Li+]", "note": "[Compound 7, [Li2(succinate) (isonicotinamide)2]n]", "values": [
      {"measurement": "Stable?", "setting": "[1]", "value": "Yes"},
      {"measurement": "AUC (Cerebral)/AUC (Plasma)", "setting": "[2]; rat, in vivo", "value": 1.077},
      {"measurement": "AUC(0-t)", "setting": "[2]; rat, in vivo, po", "value": 197, "unit": "µg·h/mL"},
      {"measurement": "AUClast (brain)", "setting": "[2]; rat, in vivo, po", "value": 211.7400, "unit": "mg·h/g"},
      {"measurement": "Cmax (brain)", "setting": "[2]; rat, in vivo, po", "value": 5.1533, "unit": "µg/g"},
      {"measurement": "Cmax (plasma)", "setting": "[2]; rat, in vivo, po", "value": 4140, "unit": "ng/mL"},
      {"measurement": "Relative Brain BA (UL crystal forms, oral vs Li2CO3, oral)", "setting": "[2]; rat, in vivo, po", "value": 91.11, "unit": "%"},
      {"measurement": "Relative Plasma BA (UL crystal forms, oral vs Li2CO3 oral)", "setting": "[2]; rat, in vivo, po", "value": 72.96, "unit": "%"},
      {"measurement": "Tmax (brain)", "setting": "[2]; rat, in vivo, po", "value": 48, "unit": "h"},
      {"measurement": "Tmax (plasma)", "setting": "[2]; rat, in vivo, po", "value": 24, "unit": "h"},
      {"measurement": "t½_Lambda_z (brain)", "setting": "[2]; rat, in vivo, po", "value": 7.7957, "unit": "h"},
      {"measurement": "t½_Lambda_z (plasma)", "setting": "[2]; rat, in vivo, po", "value": 15.0424, "unit": "h"}
    ]},
    {"compound": "[(imidazolium)2^+(Li(hydrogen malate)2(water))^−] [Compound 33]", "values": [
      {"measurement": "Stable?", "setting": "[1]", "value": "No"}
    ]},
    {"compound": "O=C(O)[C@@H]1CCCN1.O=C([O-])c1ccccc1O.[Li+]", "note": "[Compound 14, [Li(salicylate)(L-proline)]n]", "values": [
      {"measurement": "Stable?", "setting": "[1]", "value": "Yes"}
    ]},
    {"compound": "NC(=O)c1ccncc1.O.O=C([O-])/C=C\\C(=O)O.[Li+]", "note": "[Compound 22, [Li(maleate)(isonicotinamide) (water)]n]", "values": [
      {"measurement": "Stable?", "setting": "[1]", "value": "No"}
    ]},
    {"compound": "O=C(O)C(=O)O.O=C(O)C(=O)O.O=C([O-])C(=O)O.[Li+].c1c[nH]cn1.c1c[nH]cn1", "note": "[Compound 11, [(imidazolium)2^+(Li(hydogen oxalate)(oxalate))^−(oxalic acid)]]", "values": [
      {"measurement": "PXRD pattern after storage compared with initial pattern", "setting": "[1]", "value": "different"},
      {"measurement": "Stable?", "setting": "[1]", "value": "No"}
    ]}
  ]
}
